{"source": "patent US7846483B2", "about": "“Cosmetic composition for skin application suitable for relaxing expression wrinkles” (Labo Cosprophar AG, priority 2004, dated 2010)", "key": {"[1]": {"system": "endoplasmic reticulum vesicles", "assay": "Outflow of calcium ions from endoplasmic reticulum vesicles versus external magnesium ion concentration", "format": "biochemical", "details": "with an increase in the concentration of Mg++ in the medium (FIG. 2)", "experimental": "In particular, the dependence of the flow at the outlet of the calcium ions on the external concentration of magnesium ions was evaluated. The results obtained are shown in the graph of FIG. 2."}, "POMC gene": {"system": "POMC gene", "assay": "Gene expression of the POMC gene in a culture of human keratinocytes", "format": "cell-based", "details": "human keratinocytes incubated for 24 h"}, "CGRP": {"system": "CGRP", "assay": "CGRP synthesis in a culture of neurons", "format": "cell-based", "details": "neurons incubated for 6 hours"}, "[2]": {"system": "nerve-muscle co-culture model", "assay": "Contraction frequency in a nerve-muscle co-culture model with acetyl Dipeptide-1 cetyl ester", "format": "cell-based", "details": "for contraction inhibition: 0.9%", "experimental": "The decontracting efficacy was evaluated, of dipeptide N-acetyl tyrosyl-arginyl (Dipeptide) hexadecyl ester, dissolved in a hydro-glycol excipients.\n• 1. […] Evaluation of the contraction frequency in a nerve-muscle co-culture model in incubation with acetyl Dipeptide-1 cetyl ester at 0.9% for 5 minutes and 2 h."}, "[3]": {"system": "nerve-muscle co-culture model", "assay": "In vitro efficacy test on pentapeptide: contraction frequency in a nerve-muscle co-culture model", "format": "cell-based", "details": "0.3% by weight, contractions counted over 30 sec", "experimental": "In vitro efficacy test on pentapeptide\nThe frequency of the contractions was determined in a nerve-muscle co-culture model to evaluate the decontracting capacity of pentapeptide gly-pro-arg-pro -ala-NH2 SEQ ID NO 1, used at a concentration of 0.3% by weight."}}, "note": "Where no end group is shown, it is not given here."}
{"substance": "Magnesium ions", "values": [{"measurement": "quantity of Calcium ions released from the endoplasmic reticulum vesicles", "setting": "[1]", "result": "decreases"}]}
{"substance": "N-acetyl tyrosyl-arginyl (Dipeptide) hexadecyl ester [acetyl Dipeptide-1 cetyl ester]", "values": [{"measurement": "over-expression of the POMC gene with respect to the reference", "setting": "POMC gene; 0.9%", "result": "> +29%"}, {"measurement": "over-expression of the POMC gene with respect to the reference", "setting": "POMC gene; 1.9%", "result": "> +63%"}, {"measurement": "reduction in the CGRP synthesis with respect to the reference", "setting": "CGRP; 2.8%", "result": "−0", "unit": "%"}, {"measurement": "reduction in the CGRP synthesis with respect to the reference", "setting": "CGRP; 4.7%", "result": "−50", "unit": "%"}, {"measurement": "contraction inhibition", "setting": "[2]; after 5 minutes of incubation, 1 fiber out of 3", "result": "higher than 20%"}, {"measurement": "contraction inhibition", "setting": "[2]; after 2 hours of incubation, all 3 fibers", "result": 100, "unit": "%"}]}
{"substance": "gly-pro-arg-pro-ala-NH2 (GPRPA-NH2) [pentapeptide]", "values": [{"measurement": "average reduction in the contraction frequency", "setting": "[3]; after 1 minute of incubation", "result": 69.75, "unit": "%"}, {"measurement": "average reduction in the contraction frequency", "setting": "[3]; after 2 hours of incubation", "result": 60.75, "unit": "%"}]}
{"substance": "α-bungarotoxin [reference compound]", "values": [{"measurement": "DECREASE IN THE MUSCULAR FIBER CONTRACTION, Positive reference (α-bungarotoxin)", "setting": "[2]", "result": "Blockage"}]}
